Test system: NMRI-CERJ mice
Assay: Antagonism of the hypermotility induced by amphetamine
Assay type: in vivo
Settings: d-amphetamine 4 mg kg^-1 IP, 30 minutes
Procedure: 4 mg kg^-1 of d-amphetamine are injected intraperitoneally (IP) into groups of 10 NMRI-CERJ mice immediately after IP injection of the compound to be tested, and the mice are placed in an actimeter for 30 minutes.
The number of interruptions of the photoelectric cells is counted, as is the stereotyped behavior.
The activity of the compounds tested is expressed as a percentage of the antagonism of the hyperactivity induced by amphetamine.

SMILES: Cn1c(=O)sc2cc(CCN3CCC(Cc4ccccc4)CC3)ccc21 [Example 1, 3-METHYL-6-[2-(4-BENZYLPIPERID-1-YL)ETHYL]BENZOTHIAZOLINONE]
- percentage of the antagonism of the hyperactivity induced by amphetamine (2 mg.kg^-1 IP): 23%
- percentage of the antagonism of the hyperactivity induced by amphetamine (4 mg.kg^-1 IP): 50%
- percentage of the antagonism of the hyperactivity induced by amphetamine (8 mg.kg^-1 IP): 63%
